{"source": "ChEMBL document CHEMBL3045532", "about": "“Synthesis and evaluation of novel prodrugs of naproxen” (Med Chem Res, 2011)", "key": {"Rattus norvegicus [1]": {"system": "Rattus norvegicus", "assay": "Anti-inflammatory activity in Rattus norvegicus Wistar (rat) assessed as inhibition of carrageenan-induced edema volume at 66.4 mg/kg, po measured after 90 min", "type": "functional", "conditions": "1.5 h"}, "Rattus norvegicus [2]": {"system": "Rattus norvegicus", "assay": "Anti-inflammatory activity in Rattus norvegicus Wistar (rat) assessed as inhibition of carrageenan-induced edema volume at 66.4 mg/kg, po measured after 120 min", "type": "functional", "conditions": "2 h"}, "Rattus norvegicus [3]": {"system": "Rattus norvegicus", "assay": "Anti-inflammatory activity in Rattus norvegicus Wistar (rat) assessed as inhibition of carrageenan-induced edema volume at 66.4 mg/kg, po measured after 60 min", "type": "functional", "conditions": "1 h"}, "Mus musculus [4]": {"system": "Mus musculus", "assay": "Analgesic activity in Mus musculus (mouse) assessed as inhibition of acetic acid-induced writhing at 66.4 mg/kg, po pretreated 1 hr before acetic acid challenge", "type": "functional"}, "Rattus norvegicus [5]": {"system": "Rattus norvegicus", "assay": "Anti-inflammatory activity in Rattus norvegicus Wistar (rat) assessed as inhibition of carrageenan-induced edema volume at 66.4 mg/kg, po measured after 30 min", "type": "functional", "conditions": "0.5 h"}, "[6]": {"assay": "Prodrug conversion in phosphate buffer assessed as half-life for hydrolysis at pH 7.4", "type": "physicochemical"}, "[7]": {"assay": "Prodrug conversion in acetate buffer assessed as half-life for hydrolysis at pH 4", "type": "physicochemical"}, "[8]": {"assay": "Prodrug conversion in acetate buffer assessed as half-life for hydrolysis at pH 5", "type": "physicochemical"}, "[9]": {"assay": "Prodrug conversion in acetate buffer assessed as half-life for hydrolysis at pH 3", "type": "physicochemical"}, "Rattus norvegicus [10]": {"system": "Rattus norvegicus", "assay": "Gastrointestinal toxicity in Rattus norvegicus Wistar (rat) assessed as ulcer at 66.4 mg/kg, po", "type": "organism-based", "parameters": "dose 66.4 mg/kg, route oral", "conditions": "in vivo"}, "Rattus norvegicus [11]": {"system": "Rattus norvegicus", "assay": "Anti-inflammatory activity in Rattus norvegicus Wistar (rat) assessed as inhibition of carrageenan-induced edema volume at 68.9 mg/kg, po measured after 60 min", "type": "functional", "conditions": "1 h"}, "Rattus norvegicus [12]": {"system": "Rattus norvegicus", "assay": "Anti-inflammatory activity in Rattus norvegicus Wistar (rat) assessed as inhibition of carrageenan-induced edema volume at 68.9 mg/kg, po measured after 90 min", "type": "functional", "conditions": "1.5 h"}, "Rattus norvegicus [13]": {"system": "Rattus norvegicus", "assay": "Anti-inflammatory activity in Rattus norvegicus Wistar (rat) assessed as inhibition of carrageenan-induced edema volume at 68.9 mg/kg, po measured after 120 min", "type": "functional", "conditions": "2 h"}, "Rattus norvegicus [14]": {"system": "Rattus norvegicus", "assay": "Anti-inflammatory activity in Rattus norvegicus Wistar (rat) assessed as inhibition of carrageenan-induced edema volume at 68.9 mg/kg, po measured after 30 min", "type": "functional", "conditions": "0.5 h"}, "Mus musculus [15]": {"system": "Mus musculus", "assay": "Analgesic activity in Mus musculus (mouse) assessed as inhibition of acetic acid-induced writhing at 68.9 mg/kg, po pretreated 1 hr before acetic acid challenge", "type": "functional"}, "Rattus norvegicus [16]": {"system": "Rattus norvegicus", "assay": "Anti-inflammatory activity in Rattus norvegicus Wistar (rat) assessed as inhibition of carrageenan-induced edema volume at 67.0 mg/kg, po measured after 90 min", "type": "functional", "conditions": "1.5 h"}, "Rattus norvegicus [17]": {"system": "Rattus norvegicus", "assay": "Anti-inflammatory activity in Rattus norvegicus Wistar (rat) assessed as inhibition of carrageenan-induced edema volume at 67.0 mg/kg, po measured after 60 min", "type": "functional", "conditions": "1 h"}, "Rattus norvegicus [18]": {"system": "Rattus norvegicus", "assay": "Anti-inflammatory activity in Rattus norvegicus Wistar (rat) assessed as inhibition of carrageenan-induced edema volume at 67.0 mg/kg, po measured after 120 min", "type": "functional", "conditions": "2 h"}, "Rattus norvegicus [19]": {"system": "Rattus norvegicus", "assay": "Anti-inflammatory activity in Rattus norvegicus Wistar (rat) assessed as inhibition of carrageenan-induced edema volume at 67.0 mg/kg, po measured after 30 min", "type": "functional", "conditions": "0.5 h"}, "Mus musculus [20]": {"system": "Mus musculus", "assay": "Analgesic activity in Mus musculus (mouse) assessed as inhibition of acetic acid-induced writhing at 67 mg/kg, po pretreated 1 hr before acetic acid challenge", "type": "functional"}, "Rattus norvegicus [21]": {"system": "Rattus norvegicus", "assay": "Anti-inflammatory activity in Rattus norvegicus Wistar (rat) assessed as inhibition of carrageenan-induced edema volume at 64.7 mg/kg, po measured after 60 min", "type": "functional", "conditions": "1 h"}, "Rattus norvegicus [22]": {"system": "Rattus norvegicus", "assay": "Anti-inflammatory activity in Rattus norvegicus Wistar (rat) assessed as inhibition of carrageenan-induced edema volume at 64.7 mg/kg, po measured after 90 min", "type": "functional", "conditions": "1.5 h"}, "Rattus norvegicus [23]": {"system": "Rattus norvegicus", "assay": "Anti-inflammatory activity in Rattus norvegicus Wistar (rat) assessed as inhibition of carrageenan-induced edema volume at 64.7 mg/kg, po measured after 120 min", "type": "functional", "conditions": "2 h"}, "Rattus norvegicus [24]": {"system": "Rattus norvegicus", "assay": "Anti-inflammatory activity in Rattus norvegicus Wistar (rat) assessed as inhibition of carrageenan-induced edema volume at 64.7 mg/kg, po measured after 30 min", "type": "functional", "conditions": "0.5 h"}, "Mus musculus [25]": {"system": "Mus musculus", "assay": "Analgesic activity in Mus musculus (mouse) assessed as inhibition of acetic acid-induced writhing at 64.7 mg/kg, po pretreated 1 hr before acetic acid challenge", "type": "functional"}, "Rattus norvegicus [26]": {"system": "Rattus norvegicus", "assay": "Anti-inflammatory activity in Rattus norvegicus Wistar (rat) assessed as inhibition of carrageenan-induced edema volume at 67.4 mg/kg, po measured after 90 min", "type": "functional", "conditions": "1.5 h"}, "Rattus norvegicus [27]": {"system": "Rattus norvegicus", "assay": "Anti-inflammatory activity in Rattus norvegicus Wistar (rat) assessed as inhibition of carrageenan-induced edema volume at 67.4 mg/kg, po measured after 120 min", "type": "functional", "conditions": "2 h"}, "Rattus norvegicus [28]": {"system": "Rattus norvegicus", "assay": "Anti-inflammatory activity in Rattus norvegicus Wistar (rat) assessed as inhibition of carrageenan-induced edema volume at 67.4 mg/kg, po measured after 60 min", "type": "functional", "conditions": "1 h"}, "Mus musculus [29]": {"system": "Mus musculus", "assay": "Analgesic activity in Mus musculus (mouse) assessed as inhibition of acetic acid-induced writhing at 67.4 mg/kg, po pretreated 1 hr before acetic acid challenge", "type": "functional"}, "Rattus norvegicus [30]": {"system": "Rattus norvegicus", "assay": "Anti-inflammatory activity in Rattus norvegicus Wistar (rat) assessed as inhibition of carrageenan-induced edema volume at 67.4 mg/kg, po measured after 30 min", "type": "functional", "conditions": "0.5 h"}, "Rattus norvegicus [31]": {"system": "Rattus norvegicus", "assay": "Gastrointestinal toxicity in Rattus norvegicus Wistar (rat) assessed as ulcer at 69.4 mg/kg, po", "type": "organism-based", "parameters": "dose 69.4 mg/kg, route oral", "conditions": "in vivo"}}, "data": [{"smiles": "COc1ccc2cc(C(C)C(=O)OCC(OC(C)=O)C(OC(C)=O)C(OC(C)=O)C(/C=N/[C@@H](CS)C(=O)O)OC(C)=O)ccc2c1", "note": "(stereo partly specified)", "values": [{"measurement": "inhibition in vivo at 66.4 mg/kg", "setting": "Rattus norvegicus [1]", "result": 57, "unit": "%"}, {"measurement": "inhibition in vivo at 66.4 mg/kg", "setting": "Rattus norvegicus [2]", "result": 67, "unit": "%"}, {"measurement": "inhibition in vivo at 66.4 mg/kg", "setting": "Rattus norvegicus [3]", "result": 30, "unit": "%"}, {"measurement": "inhibition in vivo at 66.4 mg/kg", "setting": "Mus musculus [4]", "result": 30.4, "unit": "%"}, {"measurement": "inhibition in vivo at 66.4 mg/kg", "setting": "Rattus norvegicus [5]", "result": 42, "unit": "%"}, {"measurement": "t1/2", "setting": "[6]", "result": 30, "unit": "h"}, {"measurement": "t1/2", "setting": "[7]", "result": 15, "unit": "h"}, {"measurement": "t1/2", "setting": "[8]", "result": 77, "unit": "h"}, {"measurement": "t1/2", "setting": "[9]", "result": 44, "unit": "h"}, {"measurement": "Activity", "setting": "Rattus norvegicus [10]", "result": "Non-toxic"}]}, {"smiles": "COc1ccc2cc(C(C)C(=O)OCC(OC(C)=O)C(OC(C)=O)C(OC(C)=O)C(/C=N/[C@@H](CCC(=O)O)C(=O)O)OC(C)=O)ccc2c1", "note": "(stereo partly specified)", "values": [{"measurement": "inhibition in vivo at 68.9 mg/kg", "setting": "Rattus norvegicus [11]", "result": 32, "unit": "%"}, {"measurement": "inhibition in vivo at 68.9 mg/kg", "setting": "Rattus norvegicus [12]", "result": 53, "unit": "%"}, {"measurement": "inhibition in vivo at 68.9 mg/kg", "setting": "Rattus norvegicus [13]", "result": 66, "unit": "%"}, {"measurement": "inhibition in vivo at 68.9 mg/kg", "setting": "Rattus norvegicus [14]", "result": 32, "unit": "%"}, {"measurement": "inhibition in vivo at 68.9 mg/kg", "setting": "Mus musculus [15]", "result": 64.1, "unit": "%"}]}, {"smiles": "COc1ccc2cc(C(C)C(=O)OCC(OC(C)=O)C(OC(C)=O)C(OC(C)=O)C(/C=N/[C@@H](Cc3cnc[nH]3)C(=O)O)OC(C)=O)ccc2c1", "note": "(stereo partly specified)", "values": [{"measurement": "inhibition in vivo at 67 mg/kg", "setting": "Rattus norvegicus [16]", "result": 39, "unit": "%"}, {"measurement": "inhibition in vivo at 67 mg/kg", "setting": "Rattus norvegicus [17]", "result": 13, "unit": "%"}, {"measurement": "inhibition in vivo at 67 mg/kg", "setting": "Rattus norvegicus [18]", "result": 58, "unit": "%"}, {"measurement": "inhibition in vivo at 67 mg/kg", "setting": "Rattus norvegicus [19]", "result": 26, "unit": "%"}, {"measurement": "inhibition in vivo at 67 mg/kg", "setting": "Mus musculus [20]", "result": 65.9, "unit": "%"}]}, {"smiles": "COc1ccc2cc(C(C)C(=O)OCC(OC(C)=O)C(OC(C)=O)C(OC(C)=O)C(/C=N/[C@@H](CCCN)C(=O)O)OC(C)=O)ccc2c1", "note": "(stereo partly specified)", "values": [{"measurement": "inhibition in vivo at 64.7 mg/kg", "setting": "Rattus norvegicus [21]", "result": 32, "unit": "%"}, {"measurement": "inhibition in vivo at 64.7 mg/kg", "setting": "Rattus norvegicus [22]", "result": 50, "unit": "%"}, {"measurement": "inhibition in vivo at 64.7 mg/kg", "setting": "Rattus norvegicus [23]", "result": 67, "unit": "%"}, {"measurement": "inhibition in vivo at 64.7 mg/kg", "setting": "Rattus norvegicus [24]", "result": 24, "unit": "%"}, {"measurement": "inhibition in vivo at 64.7 mg/kg", "setting": "Mus musculus [25]", "result": 82, "unit": "%"}]}, {"smiles": "COc1ccc2cc(C(C)C(=O)OCC(OC(C)=O)C(OC(C)=O)C(OC(C)=O)C(/C=N/[C@@H](CC(C)C)C(=O)O)OC(C)=O)ccc2c1", "note": "(stereo partly specified)", "values": [{"measurement": "inhibition in vivo at 67.4 mg/kg", "setting": "Rattus norvegicus [26]", "result": 32, "unit": "%"}, {"measurement": "inhibition in vivo at 67.4 mg/kg", "setting": "Rattus norvegicus [27]", "result": 64, "unit": "%"}, {"measurement": "inhibition in vivo at 67.4 mg/kg", "setting": "Rattus norvegicus [28]", "result": 30, "unit": "%"}, {"measurement": "inhibition in vivo at 67.4 mg/kg", "setting": "Mus musculus [29]", "result": 70.5, "unit": "%"}, {"measurement": "inhibition in vivo at 67.4 mg/kg", "setting": "Rattus norvegicus [30]", "result": 46, "unit": "%"}, {"measurement": "Activity", "setting": "Rattus norvegicus [31]", "result": "Non-toxic"}]}]}
